The target in the experiment is T1, hNav1.8 (Homo sapiens, UniProt Q9Y5Y9).
T1 construct: host or cells: HEK cells, stably transfected
Kind of experiment: hNav1.8 whole-cell patch-clamp electrophysiology in HEK cells (conventional or PatchXpress 7000). The experiment is classed as cell-based. The settings on record: estimated IC50 calculated from single point % inhibition; HEK cells stably transfected with hNav1.8; 20 msec step to 0 mV after 8 second prepulse to V1/2; average of replicates; read-out: NaV1.8 EIC50. From the text: The ability of the imidazole derivatives of the formula (I) to inhibit the NaV1.8 channel may be measured using the assay described below.
HEK cells stably transfected with hNav1.8, purchased from Millipore (Millipore Corp., Billerica, Mass. 01821), were maintained according to manufacturer's instructions. For electrophysiological studies, cells were removed from the culture flask by brief trypsinization and re-plated at low density onto glass cover slips. Cells were typically used for electrophysiological experiments within 24 to 72 h after plating.
Cover slips containing HEK cells expressing hNav1.8 were placed in a bath on the stage of an inverted microscope and perfused (approximately 1 mL/min) with extracellular solution of the following composition: 138 mM NaCl, 2 mM CaCl2, 5.4 mM KCl, 1 mM MgCl2, 10 mM glucose, and 10 mM HEPES, pH 7.4, with NaOH. […] The osmolarity of the extracellular and intracellular solutions was 300 mOsm/kg and 295 mOsm/kg, respectively. All recordings were made at room temperature (22-24° C.) using AXOPATCH 200B amplifiers and PCLAMP software (Axon Instruments, Burlingame, Calif.).
hNav1.8 currents in HEK cells were measured using the whole-cell configuration of the patch-clamp technique (Hamill et al., 1981). Uncompensated series resistance was typically 2 to 5 mega ohms and >85% series resistance compensation was routinely achieved. […] Current records were acquired at 20 to 50 KHz and filtered at 5 to 10 KHz.
HEK cells stably transfected with hNav1.8 were viewed under Hoffman contrast optics and placed in front of an array of flow pipes emitting either control or compound-containing extracellular solutions. All compounds were dissolved in dimethyl sulfoxide to make 10 mM stock solutions, which were then diluted into extracellular solution to attain the final concentrations desired.
The voltage-dependence of inactivation was determined by applying a series of depolarizing prepulses (8 sec long in 10 mV increments) from a negative holding potential. The voltage was then immediately stepped to 0 mV to assess the magnitude of the sodium current. Currents elicited at 0 mV were plotted as a function of prepulse potential to allow estimation of the voltage at which 50% of the channels were inactivated (midpoint of inactivation or V1/2). Compounds were tested for their ability to inhibit hNav1.8 sodium channels by activating the channel with a 20 msec voltage step to 0 mV following an 8 second conditioning prepulse to the empirically determined V1/2. Compound effect (% inhibition) was determined by difference in current amplitude before and after application of test compounds. For ease of comparison, “estimated IC-50” values were calculated from single point electrophysiology data by the following equation, (tested concentration, uM)×(100−% inhibition/% inhibition). Inhibition values <20% and >80% were excluded from the calculation.
In some cases electrophysiological assays were conducted with PatchXpress 7000 hardware and associated software (Molecular Devices Corp). All assay buffers and solutions were identical to those used in conventional whole-cell voltage clamp experiments described above. hNav1.8 cells were grown as above to 50%-80% confluency and harvested by trypsinization. Trypsinized cells were washed and resuspended in extracellular buffer at a concentration of 1×10^6 cells/mL. The onboard liquid handling facility of the PatchXpress was used for dispensing cells and application of test compounds. Determination of the voltage midpoint of inactivation was as described for conventional whole-cell recordings. Cells were then voltage-clamped to the empirically determined V1/2 and current was activated by a 20 msec voltage step to 0 mV.

Results on 16 compounds are retold here after patent publication US9079878B2, “(4-phenylimidazol-2-yl) ethylamine derivatives useful as sodium channel modulators” (Pfizer Limited, priority 2011, dated 2015).

T1 sequence (Q9Y5Y9 whole entry): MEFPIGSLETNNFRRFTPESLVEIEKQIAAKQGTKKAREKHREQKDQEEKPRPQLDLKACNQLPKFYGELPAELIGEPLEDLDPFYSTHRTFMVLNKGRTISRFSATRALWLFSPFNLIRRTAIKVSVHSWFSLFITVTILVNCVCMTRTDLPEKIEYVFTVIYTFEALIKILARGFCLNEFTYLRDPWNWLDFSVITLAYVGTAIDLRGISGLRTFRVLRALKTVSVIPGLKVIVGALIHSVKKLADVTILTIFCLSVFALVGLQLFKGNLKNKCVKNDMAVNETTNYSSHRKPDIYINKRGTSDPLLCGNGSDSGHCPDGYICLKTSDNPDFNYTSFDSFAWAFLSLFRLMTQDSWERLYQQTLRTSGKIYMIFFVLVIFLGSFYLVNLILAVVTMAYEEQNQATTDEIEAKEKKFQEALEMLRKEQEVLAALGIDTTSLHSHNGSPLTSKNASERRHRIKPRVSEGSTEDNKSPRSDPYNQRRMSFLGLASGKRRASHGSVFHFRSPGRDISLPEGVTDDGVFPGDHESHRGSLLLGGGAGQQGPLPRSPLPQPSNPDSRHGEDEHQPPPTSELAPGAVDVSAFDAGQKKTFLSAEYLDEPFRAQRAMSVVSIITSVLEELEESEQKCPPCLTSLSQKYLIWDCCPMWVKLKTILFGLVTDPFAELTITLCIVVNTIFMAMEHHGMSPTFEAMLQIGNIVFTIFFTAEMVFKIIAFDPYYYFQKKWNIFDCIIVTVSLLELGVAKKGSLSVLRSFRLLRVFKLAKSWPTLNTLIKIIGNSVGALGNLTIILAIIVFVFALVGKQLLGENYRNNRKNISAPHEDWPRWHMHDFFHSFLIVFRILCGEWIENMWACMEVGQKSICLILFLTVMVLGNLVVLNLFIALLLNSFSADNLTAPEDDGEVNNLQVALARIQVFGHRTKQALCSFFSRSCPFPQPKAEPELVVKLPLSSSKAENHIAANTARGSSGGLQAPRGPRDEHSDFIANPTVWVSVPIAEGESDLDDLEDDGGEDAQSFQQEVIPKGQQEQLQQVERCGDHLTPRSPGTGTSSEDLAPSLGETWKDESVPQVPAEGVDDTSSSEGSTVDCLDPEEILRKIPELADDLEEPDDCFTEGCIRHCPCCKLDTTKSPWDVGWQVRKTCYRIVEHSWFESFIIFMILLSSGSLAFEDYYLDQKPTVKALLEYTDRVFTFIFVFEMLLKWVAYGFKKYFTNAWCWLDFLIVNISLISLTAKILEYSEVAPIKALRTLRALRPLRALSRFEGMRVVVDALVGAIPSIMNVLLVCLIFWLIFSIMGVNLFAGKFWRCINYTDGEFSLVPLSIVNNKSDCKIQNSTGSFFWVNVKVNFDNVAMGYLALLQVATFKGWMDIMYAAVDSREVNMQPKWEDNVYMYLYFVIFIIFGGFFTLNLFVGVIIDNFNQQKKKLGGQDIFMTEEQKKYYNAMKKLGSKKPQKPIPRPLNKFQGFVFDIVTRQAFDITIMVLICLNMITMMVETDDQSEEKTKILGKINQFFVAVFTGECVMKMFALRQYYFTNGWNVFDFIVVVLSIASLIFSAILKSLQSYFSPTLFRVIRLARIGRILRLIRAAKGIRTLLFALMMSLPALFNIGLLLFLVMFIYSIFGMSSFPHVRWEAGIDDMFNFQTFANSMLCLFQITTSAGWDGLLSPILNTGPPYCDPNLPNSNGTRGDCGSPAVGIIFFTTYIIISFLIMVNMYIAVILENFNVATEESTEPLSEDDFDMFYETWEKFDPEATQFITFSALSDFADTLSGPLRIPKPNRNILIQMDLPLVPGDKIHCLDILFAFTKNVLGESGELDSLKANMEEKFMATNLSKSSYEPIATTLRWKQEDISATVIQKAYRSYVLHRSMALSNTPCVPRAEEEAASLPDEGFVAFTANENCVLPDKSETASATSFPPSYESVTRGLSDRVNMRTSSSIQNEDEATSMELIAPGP

Turning to `CC(c1nc(-c2ccc(OC(F)(F)F)cc2)c[nH]1)C1(N)COC1` (racemic) [Example 9, 3-(1-{4-[4-(Trifluoromethoxy)phenyl]-1H-imidazol-2-yl}ethyl)oxetan-3-amine], the IC50 is 26 nM.

`CC(c1nc(-c2ccc(C(F)(F)F)cc2)c[nH]1)C1(N)COC1` (racemic) [Example 12, 3-(1-{4-[4-(Trifluoromethyl)phenyl]-1H-imidazol-2-yl}ethyl)oxetan-3-amine]: the IC50 was 9.7 nM.

In the case of `CCC(c1nc(-c2ccc(OC(F)(F)F)cc2)c[nH]1)C1(N)COC1` (racemic) [Example 15, 3-(1-{4-[4-(Trifluoromethoxy)phenyl]-1H-imidazol-2-yl}propyl)oxetan-3-amine], the IC50 was 11 nM.

As to `C[C@H](c1nc(-c2ccc(OC(F)(F)F)cc2)c[nH]1)C1(N)COC1` (single isomer, unassigned) [Example 10], the IC50 is 3.3 nM.

With `C[C@@H](c1nc(-c2ccc(OC(F)(F)F)cc2)c[nH]1)C1(N)COC1` (single isomer, unassigned) [Example 11], the IC50 is 9 nM.

Consider `C[C@H](c1nc(-c2ccc(C(F)(F)F)cc2)c[nH]1)C1(N)COC1` (single isomer, unassigned) [Example 13], for which the IC50 was 7.8 nM.

For `C[C@@H](c1nc(-c2ccc(C(F)(F)F)cc2)c[nH]1)C1(N)COC1` (single isomer, unassigned) [Example 14], the IC50 is 51 nM.

Take `CC[C@H](c1nc(-c2ccc(OC(F)(F)F)cc2)c[nH]1)C1(N)COC1` (single isomer, unassigned) [Example 16]: the IC50 is 32 nM.

As to `CC[C@@H](c1nc(-c2ccc(OC(F)(F)F)cc2)c[nH]1)C1(N)COC1` (single isomer, unassigned) [Example 17], the IC50 was 75 nM.

For the compound `NC1(Cc2nc(-c3ccc(OC(F)(F)F)cc3)c[nH]2)CCCOC1` (stereo not shown) [Example 1, 3-({4-[4-(Trifluoromethoxy)phenyl]-1H-imidazol-2-yl}methyl)tetrahydro-2H-pyran-3-amine], the IC50 is 190 nM.

As to `Cc1cc(-c2c[nH]c(CC3(N)COC3)n2)ccc1Cl` [Example 2, 3-{[4-(4-Chloro-3-methylphenyl)-1H-imidazol-2-yl]methyl}oxetan-3-amine], the IC50 was 360 nM.

For the compound `NC1(Cc2nc(-c3ccc(OC(F)(F)F)cc3)c[nH]2)CCOC1` (stereo not shown) [Example 3, 3-({4-[4-(Trifluoromethoxy)phenyl]-1H-imidazol-2-yl}methyl)tetrahydrofuran-3-amine], the IC50 is 260 nM.

Take `NC1(Cc2nc(-c3ccc(C(F)(F)F)cc3)c[nH]2)COC1` [Example 4, 3-({4-[4-(Trifluoromethyl)phenyl]-1H-imidazol-2-yl}methyl)oxetan-3-amine]: the IC50 was 360 nM.

As to `NC1(Cc2nc(-c3ccc(OC(F)F)cc3)c[nH]2)COC1` [Example 5, 3-({4-[4-(Difluoromethoxy)phenyl]-1H-imidazol-2-yl}methyl)oxetan-3-amine], the IC50 is 480 nM.

In the case of `NC1(Cc2nc(-c3ccc(S(F)(F)(F)(F)F)cc3)c[nH]2)COC1` [Example 6, 3-({4-[4-(Pentafluoro-λ^6-sulfanyl)phenyl]-1H-imidazol-2-yl}methyl)oxetan-3-amine], the IC50 was 920 nM.

For the compound `NC1(Cc2nc(-c3ccc(OC(F)(F)F)cc3)c[nH]2)CCOCC1` [Example 7, 4-({4-[4-(Trifluoromethoxy)phenyl]-1H-imidazol-2-yl}methyl)tetrahydro-2H-pyran-4-amine], the IC50 is 400 nM.
